Columns and labels:
Magnaporthe grisea = experiment: whole plant or invertebrate; type: in vivo; conditions: Pyricularia oryzae, in Oryza sativa, read-out: control value
Puccinia recondita = experiment: Test Example E: Brown rust on wheat; type: in vivo; conditions: 250 ppm sprayed (2.5 ml/pot) on wheat (Norin 61), disease development 7 to 10 days after inoculation
Botrytis cinerea = experiment: Test Example B: Gray mold on tomato; conditions: in Solanum lycopersicum, read-out: control value
Protocol: (§1) Disease development in Test Examples described below was evaluated in increments of 0.05 by setting 0 as no incidence of disease and 3 as disease development in a plant of untreated group. Further, control values were calculated using the following equation based on disease development.
(§2) <Control Value> Control value=100{1−(n/3)}
(§3) n=Disease development of each treated group
Seeds of a test plant (tomato variety: Oogata Fukuju) were planted and cultivated until three to five first leaves (true leaves) appeared. In the test, the inventive compounds were dissolved into a dimethyl sulfoxide-methanol mixture solution (volume ratio: 9/1), and the resultant solutions were diluted with well water to a concentration of 250 ppm. The thus-obtained dilutions were sprayed to the test plant (2.5 ml/pot). After the dilutions dried, a conidial suspension (4-8×10^5 conidia/ml) of Botrytis cinerea was inoculated to the plant by spraying. After the inoculation, the plant was kept in a mist chamber at room temperature of 20 to 23° C. for about 48 hours to promote the onset of disease. The disease development was investigated 2 to 3 days after the inoculation, and the effectiveness of the dilutions was evaluated.

[1] = system: Colletotrichum orbiculare; experiment: Test Example H: Anthracnose on cucumber; conditions: in Cucumis sativus, read-out: control value
Protocol: as §1, §2, §3
Seeds of a test plant (cucumber variety: Sagami Hanjiro) were planted and cultivated until the first leaf appeared. In the test, the inventive compounds were dissolved into a dimethyl sulfoxide-methanol mixture solution (volume ratio: 9/1), and the resultant solutions were diluted with well water to a concentration of 250 ppm. The thus-obtained dilutions were sprayed to the test plant (2.5 ml/pot). After the dilutions dried, a conidial suspension (2-4×10^5 conidia/ml) of Colletotrichum orbiculare was inoculated to the plant by spraying. After the inoculation, the plant was kept in a mist chamber at room temperature of 20 to 23° C. for about 24 hours to promote the onset of disease. The disease development was investigated 6 to 10 days after the inoculation, and the effectiveness of the dilutions was evaluated.

[2] = system: Blumeria graminis f. sp. hordei; experiment: Test Example D: Powdery mildew on barley; conditions: in Hordeum vulgare, read-out: control value
Protocol: as §1, §2, §3
Seeds of a test plant (barley variety: Akashinriki) were planted and cultivated until the first leaves appeared. In the test, the inventive compounds were dissolved into a dimethyl sulfoxide-methanol mixture solution (volume ratio: 9/1), and the resultant solutions were diluted with well water to a concentration of 250 ppm. The thus-obtained dilutions were sprayed to the test plant (2.5 ml/pot). After the dilutions dried, conidia of Blumeria graminis f. sp. hordei were inoculated to the plant by shaking off. The disease development was investigated 6 to 10 days after the inoculation, and the effectiveness of the dilutions was evaluated.

Alternaia brassicicola = experiment: Test Example C: Alternaria sooty spot on cabbage; conditions: Brassica oleracea, read-out: control value
Protocol: as §1, §2, §3
Seeds of a test plant (cabbage variety: Shikidori) were planted and cultivated until the cotyledons extended. In the test, the inventive compounds were dissolved into a dimethyl sulfoxide-methanol mixture solution (volume ratio: 9/1), and the resultant solutions were diluted with well water to a concentration of 250 ppm. The thus-obtained dilutions were sprayed to the test plant (2.5 ml/pot). After the dilutions dried, a conidial suspension (4-8×10^5 conidia/ml) of Alternaia brassicicola was inoculated to the plant by spraying. After the inoculation, the plant was kept in a mist chamber at room temperature of 20 to 23° C. for about 48 hours to promote the onset of disease. The disease development was investigated 2 to 3 days after the inoculation, and the effectiveness of the dilutions was evaluated.

Measured: pest or weed control at 250 ppm

CCN1C(=O)CCC(c2cc(F)cc(F)c2Cl)=C1c1ccc(F)cc1 [compound 11, 5-(2-chloro-3,5-difluorophenyl)-1-ethyl-6-(4-fluorophenyl)-3,4-dihydropyridin-2(1H)-one]
> 50%: all assays above

CCn1c(-c2ccc(F)cc2)c(-c2cc(F)cc(F)c2Cl)ccc1=O [compound 12, 5-(2-chloro-3,5-difluorophenyl)-1-ethyl-6-(4-fluorophenyl)pyridin-2(1H)-one]
> 50%: all assays above

CCn1c(-c2ccc(F)cc2)c(-c2cc(F)cc(F)c2Cl)cc(Cl)c1=O [compound 13, 3-chloro-5-(2-chloro-3,5-difluorophenyl)-1-ethyl-6-(4-fluorophenyl)pyridin-2(1H)-one]
> 50%: all assays above

CCn1c(-c2ccc(F)cc2)c(-c2cc(F)cc(F)c2Cl)cc(Br)c1=O [compound 14, 3-bromo-5-(2-chloro-3,5-difluorophenyl)-1-ethyl-6-(4-fluorophenyl)pyridin-2(1H)-one]
> 50%: all assays above

CCn1c(-c2ccc(F)cc2)c(-c2cc(F)cc(F)c2Cl)cc(C)c1=O [compound 27, 5-(2-Chloro-3,5-difluorophenyl)-1-ethyl-6-(4-fluorophenyl)-3-methylpyridin-2(1H)-one]
> 50%: all assays above

O=C1CCC(c2cc(F)cc(F)c2Cl)=C(c2ccc(F)cc2)N1CC(F)F [compound 29, 5-(2-chloro-3,5-difluorophenyl)-1-(2,2-difluoroethyl)-6-(4-fluorophenyl)-3,4-dihydropy ridin-2(1H)-one]
> 50%: Magnaporthe grisea | Puccinia recondita | [1] | [2]

O=c1ccc(-c2cc(F)cc(F)c2Cl)c(-c2ccc(F)cc2)n1CC(F)F [compound 30, 5-(2-chloro-3,5-difluorophenyl)-1-(2,2-difluoroethyl)-6-(4-fluorophenyl)pyridin-2(1H)-one]
> 50%: all assays above

O=c1c(Cl)cc(-c2cc(F)cc(F)c2Cl)c(-c2ccc(F)cc2)n1CC(F)F [compound 31, 3-chloro-5-(2-chloro-3,5-difluorophenyl)-1-(2,2-difluoroethyl)-6-(4-fluorophenyl)pyridin-2(1H)-one]
> 50%: all assays above

CCn1c(-c2ccc(F)cc2)c(-c2cc(OC)ccc2Cl)ccc1=O [compound 33, 5-(2-chloro-5-methoxyphenyl)-1-ethyl-6-(4-fluorophenyl)pyridin-2(1H)-one]
> 50%: all assays above

CCn1c(-c2ccc(F)cc2)c(-c2cc(OC)ccc2Cl)cc(Cl)c1=O [compound 44, 3-Chloro-5-(2-chloro-5-methoxyphenyl)-1-ethyl-6-(4-fluorophenyl)pyridin-2(1H)-one]
> 50%: all assays above

CCn1c(-c2ccc(F)cc2)c(-c2cc(OCOC)ccc2Cl)cc(Cl)c1=O [compound 248, 3-chloro-5-(2-chloro-5-(methoxymethoxy)phenyl)-1-ethyl-6-(4-fluorophenyl)pyridin-2(1H)-one]
> 50%: all assays above

CCn1c(-c2ccc(F)cc2)c(-c2cccnc2Cl)ccc1=O [compound 288, 2′-chloro-1-ethyl-2-(4-fluorophenyl)-[3,3′-bipyridin]-6(1H)-one]
> 50%: all assays above

CCn1c(-c2ccc(F)cc2)c(-c2cccnc2Cl)cc(Cl)c1=O [compound 291, 2′,5-dichloro-1-ethyl-2-(4-fluorophenyl)-[3,3′-bipyridin]-6(1H)-one]
> 50%: all assays above

CCn1c(-c2ccc(F)cc2)c(-c2cc(O)ccc2Cl)cc(Cl)c1=O [compound 340, 3-chloro-5-(2-chloro-5-hydroxyphenyl)-1-ethyl-6-(4-fluorophenyl)pyridin-2(1H)-one]
> 50%: all assays above

Source: US11051513B2, “Pyridone compounds and agricultural and horticultural fungicides containing the same as active ingredients” (MITSUI CHEMICALS AGRO, INC., priority 2017, dated 2021)
